Source: patent publication US11028052B2, “Compounds useful as modulators of TRPM8” (Firmenich Incorporated, priority 2013, dated 2021)

Key:
[1] = molecular target: T1, hTRPM8 (Homo sapiens, UniProt Q7Z2W7); test: hTRPM8 cell line agonist assay (section 2.1); type: cell-based; settings: for EC50 Ratio (WS3): relative to WS3 screened on the same day, greater than one = more potent than WS3; for EC50: cell line stably expressing hTRPM8
T1 construct: expressed in transfected cells
Procedure: A cell line which stably expresses hTRPM8 was used in biological assays in association with testing the present compounds with cool-tasting or -feeling properties. Typical compound concentrations tested were 100 μM, 50 μM, 10 μM, 1 μM, and 0.5 μM. The present compounds have shown activity as agonists of hTRPM8. Assay results for compounds are illustrated in the table below. EC50 in micromoles (μM) is presented as well as the activity relative to WS3 (an established, commercially available cooling agent). […] A value of 1 indicates the compound is equipotent to WS3 in the assay. […] It is noted that Compounds 2.A1 to 2.S6 in the table below are the Examples described in this application. For example, Compound 2.B 1 is Example 2.2.

[2] = test system: panelists; test: Sensory study, cooling line scale vs WS-3 (section 1.2); type: in vivo, human; settings: for Average Cooling: 45 μM WS-3 control, 15 point line scale
Procedure: Three typical sensory studies are described below each followed by a table summarizing sensory results of selected compounds of the invention (Tables 1.2 to 1.4).
(§1) All samples made with Low Sodium Buffer (LSB) pH ˜7.1 and contain 0.1% ethanol.
(§2) Compounds are rated on a 15 point line scale where 45 μM WS-3 (N-Ethyl-p-menthane-3-carboxamide) is ranked as a 5 in cool intensity. In most cases our compounds are tested to determine at what concentration the cooling intensity is equivalent to 45 μM WS-3. In each test, the panelist is presented with a 0 μM control sample, a 45 μM WS-3 control sample and the experimental compound sample and asked to rate the cooling intensity of each sample. Panelists are also asked to rate bitterness. In the table below there was no significant bitterness detected unless otherwise noted. Also, in the table below, n represents the number of tests completed for a given experiment (#panelists×#repetitions).

[3] = test system: panelists; test: Sensory studies, cool line scale vs WS-3 (section 2.2); type: in vivo, human; settings: for Sensory Results: compound concentration compared in cooling with a known concentration of WS-3
Source text: The results are presented relative to a known concentration of WS-3. A more specific detailed example of the sensory evaluation of selected examples are also presented below. […]

[4] = test system: panelists; test: Sensory study, cool line scale test vs WS-3 (section 3.2); type: in vivo, human; settings: for Average Cooling: Table 3.2, n = 30
Procedure: Two typical sensory studies are described below each followed by a table summarizing sensory results of selected compounds of the invention (Tables 3.2 and 3.3).
as §1
as §2, with “The test is a cool line scale test with timed 30 seconds interval. Compounds” for “Compounds”, “intensity. The present compound was” for “intensity. In most cases our compounds are”, “panelist was” for “panelist is”, “Panelists were” for “Panelists are”

[5] = molecular target: T1, hTRPM8; test: hTRPM8 cell based agonist assay (section 3.1); settings: for EC50: mammalian cell line stably expressing TRPM8; for EC50 Ratio (WS3): relative to WS3
Source text: The present compounds are useful as modulators of TRPM8. The activity of TRPM8 can be readily monitored in cell based assays using fluorescent calcium-sensitive dyes, membrane potential dyes, or sodium-sensitive dyes. The activity of TRPM8 can also be monitored with electrophysiological set-ups, such as patch-clamping and two-electrode voltage clamping. A mammalian cell line derivative which stably expresses TRPM8 was used in biological assays in association with testing the present compounds with cool-tasting or -feeling properties (Servant et al. US 2007/0259354 A1 and references cited therein). Typical compound concentrations tested were 50 μM, 20 μM, 10 μM, 5 μM, 2 μM, 1 μM, 0.5 μM, 0.1 μM, 0.05 μM, 0.01 μM, and other concentration points in between. The present compounds have shown strong activity as agonists of hTRPM8. Assay results for compounds are illustrated in Table 1 below. Specifically, the Compounds listed in Table 3.1, i.e., Compounds 3.A1 to Compounds 3.D1 are the specific compounds as described above.

T1 sequence (Q7Z2W7 whole entry): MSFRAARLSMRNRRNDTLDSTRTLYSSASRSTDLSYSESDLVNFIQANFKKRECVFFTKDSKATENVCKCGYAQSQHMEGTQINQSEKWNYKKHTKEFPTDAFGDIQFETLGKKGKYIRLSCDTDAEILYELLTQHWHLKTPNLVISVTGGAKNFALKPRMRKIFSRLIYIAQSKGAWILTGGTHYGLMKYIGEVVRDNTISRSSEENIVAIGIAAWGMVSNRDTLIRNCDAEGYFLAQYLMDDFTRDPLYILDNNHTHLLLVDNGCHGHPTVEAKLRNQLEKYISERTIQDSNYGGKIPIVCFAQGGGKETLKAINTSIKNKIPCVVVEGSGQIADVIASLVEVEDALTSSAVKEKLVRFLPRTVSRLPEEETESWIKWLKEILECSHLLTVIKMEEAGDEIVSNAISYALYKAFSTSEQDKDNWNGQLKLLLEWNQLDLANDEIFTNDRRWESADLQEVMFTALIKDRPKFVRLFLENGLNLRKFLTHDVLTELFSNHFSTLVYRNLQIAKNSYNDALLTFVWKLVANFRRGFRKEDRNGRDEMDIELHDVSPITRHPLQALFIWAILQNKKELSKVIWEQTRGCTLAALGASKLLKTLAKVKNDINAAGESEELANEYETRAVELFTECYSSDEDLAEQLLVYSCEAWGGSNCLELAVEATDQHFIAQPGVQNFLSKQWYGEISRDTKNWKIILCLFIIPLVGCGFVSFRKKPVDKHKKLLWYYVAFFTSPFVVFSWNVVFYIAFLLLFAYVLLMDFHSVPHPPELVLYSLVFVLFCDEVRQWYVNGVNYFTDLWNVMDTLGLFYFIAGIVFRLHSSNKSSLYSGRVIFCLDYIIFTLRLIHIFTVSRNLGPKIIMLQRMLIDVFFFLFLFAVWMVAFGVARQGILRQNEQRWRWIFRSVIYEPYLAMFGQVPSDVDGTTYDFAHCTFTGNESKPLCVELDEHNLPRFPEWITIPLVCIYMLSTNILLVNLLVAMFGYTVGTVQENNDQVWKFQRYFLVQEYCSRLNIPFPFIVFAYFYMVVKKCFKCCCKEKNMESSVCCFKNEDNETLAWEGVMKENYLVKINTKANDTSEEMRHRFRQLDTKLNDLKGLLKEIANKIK

SMILES	EC50 Ratio (WS3) [1]	EC50 [1] [nM]	EC50 [5] [nM]	EC50 Ratio (WS3) [5]	other results
CCNC(=O)C1CC(C)CCC1C(C)C (centres unmarked) [WS-3, N-Ethyl-p-menthane-3-carboxamide, reference compound]					Average Cooling ([2]; Table 1.2, n = 30): 4.4; Average Cooling ([2]; Table 1.3, n = 28): 5.4; Average Cooling ([2]; Table 1.4, n = 28): 4.1; Cool intensity compared with LSB (line scale conclusion) ([3]; 60 μM in LSB at pH 7.1): significantly higher in cool intensity than LSB; Ave Cool ([3]; Table 2.1, 60 μM WS-3, n = 10): 3.7; Average Cooling ([4]; 45 μM WS-3 control): 4.5
CN1C(=O)N(CC(=O)c2ccc[nH]2)C(=O)C1(C)C1CC2CCC1C2 (single isomer, unassigned) [Compound 2.O3]	21.6	223			
CC(C)(C(=O)NCC(=O)c1cccc(F)c1)C1CCCCC1 [Example 3.B7]			257	18.6	
CC(C)(C(=O)NCC(=O)c1cccnc1)C1CCCCC1 [Example 3.B4]			230	26.5	
CC1=NN(CC(=O)c2ccccc2)C(=O)C1(C)C1CCCCC1 (centres unmarked) [Example A1]					Cooling compared with 0 μM and 45 μM WS-3 (panel conclusion) ([2]; 5 μM): significantly more cooling than 0 μM WS-3 (p<0.05) and not significantly different in cooling than 45 μM WS-3
CC(C)(C(=O)NCC(O)c1ccccc1)C1CCCCC1 (centres unmarked) [Example 3.F8]			4170	1.1	
CC(C(=O)N(C)CC(=O)c1cc(O)cc(O)c1)C1CCCCC1 (centres unmarked) [Example 3.A3]			28	221.2	
CC(C(=O)N(C)CC(=O)c1cccs1)C1CCCCC1 (centres unmarked) [Example 3.A10]			59	62.5	
CC(C(=O)N(C)CC(=O)c1ccccc1)c1ccccc1 (centres unmarked) [Example 3.D6]			2350	3.9	
CC(C)(C(=O)NCC(=O)c1cc(O)cc(O)c1)C1CCCCC1 [Example 3.A9]			87	66.5	
C[C@H](C(=O)N(C)CC(=O)c1ccsc1)C1CCCCC1 [Example 3.A4]			41	132.4	
CC(C(=O)N(C)CC(=O)c1cccc(O)c1)C1CCCCC1 (centres unmarked) [Example 3.A1]			13	581.6	
C[C@H](C(=O)N(C)CC(=O)c1ccccc1)C1CCCCC1 [Example 3.2, (S)-2-Cyclohexyl-N-methyl-N-(2-oxo-2-phenylethyl)propanamide]					Cooling compared with 0 μM and 45 μM WS-3 (panel conclusion) ([4]; 5 μM): significantly more cooling than 0 μM WS-3 (p<0.05) and not significantly different in cooling than 45 μM WS-3; Average Cooling ([4]; 5 μM, 15 point line scale): 4.0
CN1C(=O)N(CC(=O)c2ccccc2)C(=O)C(C)(C2=CCCCC2)C1=O (centres unmarked) [Compound 2.M3]	240.6	192			
CN1C(=O)N(CC(=O)c2cccnc2)C(=O)C(C)(C2=CCCCC2)C1=O (centres unmarked)					melting point: 109 to 111 °C
CN(CC(=O)c1ccc(F)cc1)C(=O)C(C)(C)C1CCCCC1 [Example 3.E7]			2160	1.9	
CC(C)(C(=O)NCC(=O)c1ccc(O)cc1)C1CCCCC1 [Example 3.C5]			504	9.4	

Continued, in another order:

EC50 Ratio (WS3) [1]	EC50 [1] [nM]	EC50 [5] [nM]	EC50 Ratio (WS3) [5]	SMILES	other results
2810.1				CN1C(=O)N(CC(=O)c2cccc(O)c2)C(=O)C1(C)C1CC2CCC1C2 (single isomer, unassigned) [Compound 2.B3]	
30.1	172			CN1C(=O)N(CC(=O)c2cccnc2)C(=O)C1(C)C1CCCCC1 (centres unmarked) [Compound 2.K3]	Sensory Results [3]: 30 uM~45 uM WS-3
49.1	100			CN1C(=O)N(CC(=O)c2cccc(O)c2)C(=O)C1(C)C1CC2CCC1C2 (centres unmarked) [Compound 2.C3]	
33.4	124			CN1C(=O)N(CC(=O)c2ccc(O)cc2)C(=O)C1(C)C1CCCCC1 (centres unmarked) [Compound 2.D3]	
0.9	3720			CN1C(=O)N(CC(=O)c2cccnc2)C(=O)C1(C)CCc1ccccc1 (centres unmarked) [Compound 2.U5]	
		3390	1.0	CC(C(=O)NCC(=O)c1ccccc1)C1CC2CCC1C2 (centres unmarked) [Example 3.F9]	
38.1	230			CCN1C(=O)N(CC(=O)c2ccccc2)C(=O)C1(C)C1CCCCC1 (centres unmarked) [Compound 2.P3]	Sensory Results [3]: 15 uM < 45 uM WS-3
25.9	182			CC1CCCC1C1(C)C(=O)N(CC(=O)c2ccccc2)C(=O)N1C (mixture of isomers) [Compound 2.L3]	
53.5	127			CN1C(=O)N(CC(=O)c2ccccc2)C(=O)C1(C)C1CC2C=CC1CC2 (centres unmarked) [Compound 2.E3]	
33.8	163			CN1C(=O)N(CC(=O)c2ccccc2)C(=O)C1(C)C1CC2CCC1CC2 (centres unmarked) [Compound 2.I3]	
		4470	2.5	Cc1cccc(C(C)C(=O)N(C)CC(=O)c2ccccc2)c1 (centres unmarked) [Example 3.E6]	
13.5	374			CN1CC(C)(C2CCCCC2)C(=O)N(CC(=O)c2cccnc2)C1=O (centres unmarked) [Example 2.2, 5-cyclohexyl-1,5-dimethyl-3-(2-oxo-2-(pyridin-3-yl)ethyl)dihydropyrimidine-2,4(1H,3H)-dione]	
		10	577.8	CC(C(=O)N(C)CC(=O)c1ccccc1)C1CCCCC1 (centres unmarked) [Example 3.A2]	
32.6	146			CC1CCCC1C1(C)C(=O)N(CC(=O)c2cccc(O)c2)C(=O)N1C (mixture of isomers) [Compound 2.G3]	Sensory Results [3]: 15 uM < 45 uM WS-3
54.6	135			CN1CC(C)(C2=CCCCC2)C(=O)N(CC(=O)c2ccccc2)C1=O (centres unmarked) [Compound 2.A1]	Sensory Results [3]: 10 uM < 45 uM WS-3
		6240	1.0	C[C@H](C(=O)NNC(=O)c1ccccc1)C1CCCCC1 [Example 3.G1]	
24.1	205			CC1CCCC1C1(C)C(=O)N(CC(=O)c2ccc[nH]2)C(=O)N1C (centres unmarked) [Compound 2.N3]	Sensory Results [3]: 15 uM < 45 uM WS-3
44.0	138			CN1C(=O)N(CC(=O)c2ccccc2)C(=O)C1(C)C1=CCCCC1 (centres unmarked) [Compound 2.F3]	
73.1	100			CN1C(=O)N(CC(=O)c2ccccc2)C(=O)C1(C)C1CC2CCC1CC2 (single isomer, unassigned) [Compound 2.A3]	
32.1	166			CN1C(=O)N(CC(=O)c2ccc[nH]2)C(=O)C1(C)C1CCCCC1 (centres unmarked) [Compound 2.J3]	Sensory Results [3]: 15 uM~45 uM WS-3
1.6	2880			CN1CC(C)(C2=CCCCC2)CN(CC(=O)c2ccccc2)C1=O (centres unmarked) [Compound 2.F1]	
